Tests used:
Assay type in all cases: cell-based
N. carnea = test: Kirby-Bauer disk diffusion susceptibility test; settings: 300 μg/disc
Description: (§1) Bacterial strains, from clinical origin, were supplied by the National Center for Microbiology, Institute of Health Carlos III (Majadahonda, Madrid). They are detailed in Table 1.
(§2) Bacterial cells suspension in sterile saline was prepared from a culture of 24-72 h, depending on bacterial species, in Mueller-Hinton Agar with 5% sheep blood. Each suspension was adjusted to a fixed size inoculum of 1-5×10^8 CFU/ml with a spectrophotometer (Ferraro, MJ National Committee for Clinical Laboratory Standards. 2000).
(§3) Kirby-Bauer disk diffusion susceptibility test protocol was utilized to determine the sensitivity or resistance of pathogenic bacteria against the compounds and others antibiotics. The absence of growth around the disks is an indirect measure of the ability of this compound to inhibit an organism (Kirby, W., et al., Antibiotics Annu. 1956-1957:892). After 18 to 72 hours of incubation at 37° C., with or without CO2, under aerobic or anaerobic conditions, depending on the bacterial species, halo of growth inhibition were obtained and evaluated.
(§4) Interpretation of susceptibility and resistance was based on the presence or absence of a zone of inhibition surrounding the disk. Kirby-Bauer disk diffusion susceptibility test is a common method which uses antibiotic-impregnated wafers to test whether bacteria are affected by antibiotics. The size of the zone of inhibition depends on how effective the antibiotic is at stopping the growth of the bacterium. A stronger antibiotic will create a larger zone, because a lower concentration of the antibiotic is enough to stop growth.
(§5) All compounds were tested at 300 μg/disc.

A. baumannii = test: Kirby-Bauer disk diffusion susceptibility test; settings: 300 μg/disc
Description: as §1, §2, §3, §4, §5

T. pulmonis = test: Kirby-Bauer disk diffusion susceptibility test; settings: 300 μg/disc
Description: as §1, §2, §3, §4, §5

S. pneumoniae = test: Kirby-Bauer disk diffusion susceptibility test; settings: 300 μg/disc
Description: as §1, §2, §3, §4, §5

N. cyriacigeorgica = test: Kirby-Bauer disk diffusion susceptibility test; settings: 300 μg/disc
Description: as §1, §2, §3, §4, §5

C. lusitaniae = test: Antifungal disk diffusion susceptibility test (CLSI M44); settings: Clavispora lusitaniae, C. lusitaniae; for zone of inhibition at 150 µg/disc: 150 μg/disc; for zone of inhibition at 500 µg/disc: 500 μg/disc
Description: (§6) Filamentous fungi and yeasts strains, from clinical origin, were supplied by Microbiology Service from The Princess Hospital, Madrid. They are detailed in Table IX.
(§7) Filamentous fungi and yeast cells suspensions in distilled water was prepared from a culture of 24-48 h, depending on species, in Sabouraud agar. Each suspension was adjusted to a fixed size inoculum of 1-5×10^8 CFU/ml with a spectrophotometer (Ferraro, MJ National Committee for Clinical Laboratory Standards. 2000).
(§8) Antifungal susceptibility tests were developed following the standardized methodology detailed in document CLSI: M44-4: Method for Antifungal Disk diffusion susceptibility testing of yeasts consisting of disk diffusion on agar Muller-Hinton (supplemented with 2% glucose).

C. albicans = test: as above; settings: Candida albicans, C. albicans; for zone of inhibition at 150 µg/disc: 150 μg/disc; for zone of inhibition at 500 µg/disc: 500 μg/disc
Description: as §6, §7, §8

A. fumigatus = test: as above; settings: Aspergillus fumigatus, A. fumigatus; for zone of inhibition at 150 µg/disc: 150 μg/disc; for zone of inhibition at 500 µg/disc: 500 μg/disc
Description: as §6, §7, §8

C. parapsilosis = test: as above; settings: Lodderomyces parapsilosis, C. parapsilosis; for zone of inhibition at 150 µg/disc: 150 μg/disc; for zone of inhibition at 500 µg/disc: 500 μg/disc
Description: as §6, §7, §8

A. niger = test: as above; settings: Aspergillus niger, A. niger; for zone of inhibition at 150 µg/disc: 150 μg/disc; for zone of inhibition at 500 µg/disc: 500 μg/disc
Description: as §6, §7, §8

A. flavus = test: as above; settings: Aspergillus flavus, A. flavus; for zone of inhibition at 150 µg/disc: 150 μg/disc; for zone of inhibition at 500 µg/disc: 500 μg/disc
Description: as §6, §7, §8

A. terreus = test: as above; settings: Aspergillus terreus, A. terreus; for zone of inhibition at 150 µg/disc: 150 μg/disc; for zone of inhibition at 500 µg/disc: 500 μg/disc
Description: as §6, §7, §8

S. cerevisiae = test: as above; settings: Saccharomyces cerevisiae, S. cerevisiae; for zone of inhibition at 150 µg/disc: 150 μg/disc; for zone of inhibition at 500 µg/disc: 500 μg/disc
Description: as §6, §7, §8

C. tropicalis = test: as above; settings: Candida tropicalis, C. tropicalis; for zone of inhibition at 150 µg/disc: 150 μg/disc; for zone of inhibition at 500 µg/disc: 500 μg/disc
Description: as §6, §7, §8

C. guillermondii = test: as above; settings: C. guillermondii; for zone of inhibition at 150 µg/disc: 150 μg/disc; for zone of inhibition at 500 µg/disc: 500 μg/disc
Description: as §6, §7, §8

K. pneumoniae = test: Kirby-Bauer disk diffusion susceptibility test; settings: 300 μg/disc
Description: as §1, §2, §3, §4, §5

## NNC(=O)C(=O)NNc1ccc(Cl)cc1 [MSG-214]
N. carnea
  Activity detected (mm): 14 mm
A. baumannii
  Activity detected (mm): 12 mm
T. pulmonis
  Activity detected (mm): 30 mm
S. pneumoniae
  Activity detected (mm): 11 mm
N. cyriacigeorgica
  Activity detected (mm): 25 mm
C. lusitaniae
  zone of inhibition at 150 µg/disc: 42 mm
  zone of inhibition at 500 µg/disc: > 40 mm
C. albicans
  zone of inhibition at 150 µg/disc: 40 mm
  zone of inhibition at 500 µg/disc: > 40 mm
A. fumigatus
  zone of inhibition at 150 µg/disc: < 10 mm
  zone of inhibition at 500 µg/disc: 16 mm
C. parapsilosis
  zone of inhibition at 150 µg/disc: 15 mm
  zone of inhibition at 500 µg/disc: > 40 mm
A. niger
  zone of inhibition at 150 µg/disc: 10 mm
  zone of inhibition at 500 µg/disc: > 40 mm
A. flavus
  zone of inhibition at 150 µg/disc: < 10 mm
  zone of inhibition at 500 µg/disc: < 10 mm
A. terreus
  zone of inhibition at 150 µg/disc: < 10 mm
  zone of inhibition at 500 µg/disc: 17 mm
S. cerevisiae
  zone of inhibition at 150 µg/disc: 15 mm
  zone of inhibition at 500 µg/disc: 32 mm
C. tropicalis
  zone of inhibition at 150 µg/disc: 34 mm
  zone of inhibition at 500 µg/disc: > 40 mm
C. guillermondii
  zone of inhibition at 150 µg/disc: 15 mm
  zone of inhibition at 500 µg/disc: > 40 mm

## NNC(=O)C(=O)NNc1ccc(Br)cc1 [MSG-216]
N. carnea
  Activity detected (mm): 14 mm
K. pneumoniae
  Activity detected (mm): 11 mm
A. baumannii
  Activity detected (mm): 12 mm
T. pulmonis
  Activity detected (mm): 25 mm
N. cyriacigeorgica
  Activity detected (mm): 17 mm
C. lusitaniae
  zone of inhibition at 150 µg/disc: 36 mm
  zone of inhibition at 500 µg/disc: > 40 mm
C. albicans
  zone of inhibition at 150 µg/disc: 24 mm
  zone of inhibition at 500 µg/disc: > 40 mm
A. fumigatus
  zone of inhibition at 150 µg/disc: < 10 mm
  zone of inhibition at 500 µg/disc: 10 mm
C. parapsilosis
  zone of inhibition at 150 µg/disc: 11 mm
  zone of inhibition at 500 µg/disc: > 40 mm
A. niger
  zone of inhibition at 150 µg/disc: 10 mm
  zone of inhibition at 500 µg/disc: 36 mm
A. flavus
  zone of inhibition at 150 µg/disc: < 10 mm
  zone of inhibition at 500 µg/disc: < 10 mm
A. terreus
  zone of inhibition at 150 µg/disc: < 10 mm
  zone of inhibition at 500 µg/disc: 10 mm
S. cerevisiae
  zone of inhibition at 150 µg/disc: 19 mm
  zone of inhibition at 500 µg/disc: 35 mm
C. tropicalis
  zone of inhibition at 150 µg/disc: 26 mm
  zone of inhibition at 500 µg/disc: > 40 mm
C. guillermondii
  zone of inhibition at 150 µg/disc: 13 mm
  zone of inhibition at 500 µg/disc: > 40 mm

## Cc1ccc(NNC(=O)C(=O)NN)cc1 [MSG-218]
A. baumannii
  Activity detected (mm): 15 mm
T. pulmonis
  Activity detected (mm): 33 mm
C. lusitaniae
  zone of inhibition at 150 µg/disc: 22 mm
  zone of inhibition at 500 µg/disc: 46 mm
C. albicans
  zone of inhibition at 150 µg/disc: 24 mm
  zone of inhibition at 500 µg/disc: > 40 mm
A. fumigatus
  zone of inhibition at 150 µg/disc: < 10 mm
  zone of inhibition at 500 µg/disc: 10 mm
C. parapsilosis
  zone of inhibition at 150 µg/disc: 25 mm
  zone of inhibition at 500 µg/disc: 36 mm
A. niger
  zone of inhibition at 150 µg/disc: 22 mm
  zone of inhibition at 500 µg/disc: 30 mm
A. flavus
  zone of inhibition at 150 µg/disc: < 10 mm
  zone of inhibition at 500 µg/disc: < 10 mm
A. terreus
  zone of inhibition at 150 µg/disc: < 10 mm
  zone of inhibition at 500 µg/disc: 10 mm
S. cerevisiae
  zone of inhibition at 150 µg/disc: 24 mm
  zone of inhibition at 500 µg/disc: 34 mm
C. tropicalis
  zone of inhibition at 150 µg/disc: 10 mm
  zone of inhibition at 500 µg/disc: 40 mm
C. guillermondii
  zone of inhibition at 150 µg/disc: 22 mm
  zone of inhibition at 500 µg/disc: 40 mm

## COc1cccc(NNC(=O)C(=O)NN)c1 [MSG-227]
C. lusitaniae
  zone of inhibition at 150 µg/disc: > 40 mm
  zone of inhibition at 500 µg/disc: > 40 mm
C. albicans
  zone of inhibition at 150 µg/disc: 26 mm
  zone of inhibition at 500 µg/disc: > 40 mm
A. fumigatus
  zone of inhibition at 150 µg/disc: 11 mm
  zone of inhibition at 500 µg/disc: > 40 mm
C. parapsilosis
  zone of inhibition at 150 µg/disc: 31 mm
  zone of inhibition at 500 µg/disc: > 40 mm
A. niger
  zone of inhibition at 150 µg/disc: 32 mm
  zone of inhibition at 500 µg/disc: > 40 mm
A. flavus
  zone of inhibition at 150 µg/disc: 25 mm
  zone of inhibition at 500 µg/disc: > 40 mm
A. terreus
  zone of inhibition at 150 µg/disc: > 40 mm
  zone of inhibition at 500 µg/disc: > 40 mm
S. cerevisiae
  zone of inhibition at 150 µg/disc: 20 mm
  zone of inhibition at 500 µg/disc: 25 mm
C. tropicalis
  zone of inhibition at 150 µg/disc: 26 mm
  zone of inhibition at 500 µg/disc: > 40 mm
C. guillermondii
  zone of inhibition at 150 µg/disc: > 40 mm
  zone of inhibition at 500 µg/disc: > 40 mm
